Reference: PubChem BioAssay (NCI)
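1) Cells in 96-well plates. 2) Compound, 48 h, 5 concentrations. 3) Linear interpolation between surrounding doses. 4) Unreached endpoint = highest concentration. TGI: concentration producing complete growth inhibition.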

Tested on: OVCAR-3 ovarian
Test: growth of human tumour cells (NCI), 48 h

Structure (SMILES)	TGI [µM]
COc1ccc(CNc2ccn(C3OC(CO)C(O)C3O)c(=O)n2)cc1 (centres undefined)	> 100
O=C1CSC(c2ccccc2)N1c1nc2cc3sc(N4C(=O)CSC4c4ccccc4)nc3cc2s1 (centres undefined)	> 100
Cc1nc(N)c(N2CCN(S(N)(=O)=O)CC2)c(=O)[nH]1	> 100
CC(C)OC(=O)c1ccc(NCC2=CC(=O)C=CC2=O)cc1	21.6
CC(C)C[C@H]1[C@@H](OCc2ccccc2)COS(=O)(=O)N1[C@H](C)c1ccccc1	> 100
O=c1[nH]c2cccc([N+](=O)[O-])c2c(=O)n1-c1ccc(Cl)cc1	23.5
O=C1c2ccccc2-c2nnc(-c3ccc([N+](=O)[O-])cc3)cc21	> 10
C1C2CC3CC1CC(c1nn4c(C56CC7CC(CC(C7)C5)C6)nnc4s1)(C2)C3	> 100
Cn1c(-c2cccs2)cc(-c2cccs2)c1-c1cccs1	> 100
CCSc1nnc(Sc2c3ccccc3nc3ccccc23)s1	29.4
N=c1c2ccccc2nc2oc3cc([N+](=O)[O-])ccc3n12	70.8
CCOC(=O)CC[C@H](N)C(=O)N[C@@H](Cc1ccc(N(CCCl)CCCl)cc1)C(=O)OCC	1.82

Tested on: ACHN renal
Test: growth of human tumour cells (NCI), 48 h

Structure (SMILES)	TGI [µM]
CCN(CCCl)c1cc(CN(C)C)cc(NC(=O)c2ccc(C(=O)Nc3cc(CN(C)C)cc(N(CC)CCCl)c3)cc2)c1	0.994
C=CCN1C(=O)/C(=C/c2ccc(Cl)cc2)N=C1SC/C=C/C	> 100
CC12Nc3c(Cl)cc(Cl)cc3N1C(=O)c1ccccc12 (centres undefined)	> 100
O=C1C2=Cc3ccccc3CCN2c2ccccc21	> 31.6
CC(=O)OCC1OC(NC(=S)Nn2c(=O)[nH]c3ccccc3c2=O)C(OC(C)=O)C(OC(C)=O)C1OC(C)=O (centres undefined)	> 100
CN(CCC(=O)N1CC(CCl)c2ccc([N+](=O)[O-])cc21)CCC(=O)N1CC(CCl)c2ccc([N+](=O)[O-])cc21 (centres undefined)	2.91
C[C@]12CC[C@H]3[C@@H](CCC4=CC(=O)CC[C@@H]43)[C@@H]1CC[C@]2(O)C(N)=O	> 100
C/C(Cl)=N/OC(=O)Nc1ccc(F)c([N+](=O)[O-])c1	8.23
O=c1[nH]c(=O)n(C/C=C/CO)nc1Br	> 100
O=C1CC(Br)c2c(Br)sc(Br)c21 (centres undefined)	31.6
CC[C@]12C=CCN3CC[C@@]4(c5cc(Br)c(OC)c([N+](=O)[O-])c5N(C)[C@H]4[C@@](O)(C(=O)OC)[C@@H]1OC(C)=O)[C@@H]32	> 100
COC(=O)C1C2OC(C)(C)OC2CN1S(=O)(=O)c1ccc(C)cc1 (centres undefined)	> 100
COc1ccc(CNc2ccn(C3OC(CO)C(O)C3O)c(=O)n2)cc1 (centres undefined)	> 100
O=C1CSC(c2ccccc2)N1c1nc2cc3sc(N4C(=O)CSC4c4ccccc4)nc3cc2s1 (centres undefined)	> 100
Cc1nc(N)c(N2CCN(S(N)(=O)=O)CC2)c(=O)[nH]1	> 100
CC(C)OC(=O)c1ccc(NCC2=CC(=O)C=CC2=O)cc1	24.3
CC(C)C[C@H]1[C@@H](OCc2ccccc2)COS(=O)(=O)N1[C@H](C)c1ccccc1	> 100
O=c1[nH]c2cccc([N+](=O)[O-])c2c(=O)n1-c1ccc(Cl)cc1	25.1
O=C1c2ccccc2-c2nnc(-c3ccc([N+](=O)[O-])cc3)cc21	> 10
C1C2CC3CC1CC(c1nn4c(C56CC7CC(CC(C7)C5)C6)nnc4s1)(C2)C3	> 100
Cn1c(-c2cccs2)cc(-c2cccs2)c1-c1cccs1	> 100
CCSc1nnc(Sc2c3ccccc3nc3ccccc23)s1	17.7
N=c1c2ccccc2nc2oc3cc([N+](=O)[O-])ccc3n12	57.7
CCOC(=O)CC[C@H](N)C(=O)N[C@@H](Cc1ccc(N(CCCl)CCCl)cc1)C(=O)OCC	1.72

Tested on: HS 578T breast
Test: growth of human tumour cells (NCI), 48 h

Structure (SMILES)	TGI [µM]
CCN(CCCl)c1cc(CN(C)C)cc(NC(=O)c2ccc(C(=O)Nc3cc(CN(C)C)cc(N(CC)CCCl)c3)cc2)c1	0.761
C=CCN1C(=O)/C(=C/c2ccc(Cl)cc2)N=C1SC/C=C/C	> 100
CC12Nc3c(Cl)cc(Cl)cc3N1C(=O)c1ccccc12 (centres undefined)	> 100
O=C1C2=Cc3ccccc3CCN2c2ccccc21	> 100
CC(=O)OCC1OC(NC(=S)Nn2c(=O)[nH]c3ccccc3c2=O)C(OC(C)=O)C(OC(C)=O)C1OC(C)=O (centres undefined)	> 100
CN(CCC(=O)N1CC(CCl)c2ccc([N+](=O)[O-])cc21)CCC(=O)N1CC(CCl)c2ccc([N+](=O)[O-])cc21 (centres undefined)	17.7
C[C@]12CC[C@H]3[C@@H](CCC4=CC(=O)CC[C@@H]43)[C@@H]1CC[C@]2(O)C(N)=O	> 100
C/C(Cl)=N/OC(=O)Nc1ccc(F)c([N+](=O)[O-])c1	16.4
O=c1[nH]c(=O)n(C/C=C/CO)nc1Br	> 100
O=C1CC(Br)c2c(Br)sc(Br)c21 (centres undefined)	> 100
CC[C@]12C=CCN3CC[C@@]4(c5cc(Br)c(OC)c([N+](=O)[O-])c5N(C)[C@H]4[C@@](O)(C(=O)OC)[C@@H]1OC(C)=O)[C@@H]32	> 100
COC(=O)C1C2OC(C)(C)OC2CN1S(=O)(=O)c1ccc(C)cc1 (centres undefined)	> 100
COc1ccc(CNc2ccn(C3OC(CO)C(O)C3O)c(=O)n2)cc1 (centres undefined)	> 100
O=C1CSC(c2ccccc2)N1c1nc2cc3sc(N4C(=O)CSC4c4ccccc4)nc3cc2s1 (centres undefined)	> 100
Cc1nc(N)c(N2CCN(S(N)(=O)=O)CC2)c(=O)[nH]1	> 100
CC(C)OC(=O)c1ccc(NCC2=CC(=O)C=CC2=O)cc1	65.4
CC(C)C[C@H]1[C@@H](OCc2ccccc2)COS(=O)(=O)N1[C@H](C)c1ccccc1	> 100
O=c1[nH]c2cccc([N+](=O)[O-])c2c(=O)n1-c1ccc(Cl)cc1	42
O=C1c2ccccc2-c2nnc(-c3ccc([N+](=O)[O-])cc3)cc21	> 10
C1C2CC3CC1CC(c1nn4c(C56CC7CC(CC(C7)C5)C6)nnc4s1)(C2)C3	> 100
Cn1c(-c2cccs2)cc(-c2cccs2)c1-c1cccs1	> 100
CCSc1nnc(Sc2c3ccccc3nc3ccccc23)s1	> 100
N=c1c2ccccc2nc2oc3cc([N+](=O)[O-])ccc3n12	50.7
CCOC(=O)CC[C@H](N)C(=O)N[C@@H](Cc1ccc(N(CCCl)CCCl)cc1)C(=O)OCC	4.92

Tested on: RPMI-8226 leukemia
Test: growth of human tumour cells (NCI), 48 h

Structure (SMILES)	TGI [µM]
CCN(CCCl)c1cc(CN(C)C)cc(NC(=O)c2ccc(C(=O)Nc3cc(CN(C)C)cc(N(CC)CCCl)c3)cc2)c1	1.02
C=CCN1C(=O)/C(=C/c2ccc(Cl)cc2)N=C1SC/C=C/C	47.3
CC12Nc3c(Cl)cc(Cl)cc3N1C(=O)c1ccccc12 (centres undefined)	> 100
O=C1C2=Cc3ccccc3CCN2c2ccccc21	23.3
CC(=O)OCC1OC(NC(=S)Nn2c(=O)[nH]c3ccccc3c2=O)C(OC(C)=O)C(OC(C)=O)C1OC(C)=O (centres undefined)	> 100
CN(CCC(=O)N1CC(CCl)c2ccc([N+](=O)[O-])cc21)CCC(=O)N1CC(CCl)c2ccc([N+](=O)[O-])cc21 (centres undefined)	13.9
C[C@]12CC[C@H]3[C@@H](CCC4=CC(=O)CC[C@@H]43)[C@@H]1CC[C@]2(O)C(N)=O	> 100
C/C(Cl)=N/OC(=O)Nc1ccc(F)c([N+](=O)[O-])c1	> 25.7
O=c1[nH]c(=O)n(C/C=C/CO)nc1Br	> 100
O=C1CC(Br)c2c(Br)sc(Br)c21 (centres undefined)	28
CC[C@]12C=CCN3CC[C@@]4(c5cc(Br)c(OC)c([N+](=O)[O-])c5N(C)[C@H]4[C@@](O)(C(=O)OC)[C@@H]1OC(C)=O)[C@@H]32	> 100
COC(=O)C1C2OC(C)(C)OC2CN1S(=O)(=O)c1ccc(C)cc1 (centres undefined)	> 100
COc1ccc(CNc2ccn(C3OC(CO)C(O)C3O)c(=O)n2)cc1 (centres undefined)	> 100
O=C1CSC(c2ccccc2)N1c1nc2cc3sc(N4C(=O)CSC4c4ccccc4)nc3cc2s1 (centres undefined)	> 100
Cc1nc(N)c(N2CCN(S(N)(=O)=O)CC2)c(=O)[nH]1	> 100
CC(C)OC(=O)c1ccc(NCC2=CC(=O)C=CC2=O)cc1	> 24.8
CC(C)C[C@H]1[C@@H](OCc2ccccc2)COS(=O)(=O)N1[C@H](C)c1ccccc1	> 74.7
O=c1[nH]c2cccc([N+](=O)[O-])c2c(=O)n1-c1ccc(Cl)cc1	36.1
O=C1c2ccccc2-c2nnc(-c3ccc([N+](=O)[O-])cc3)cc21	> 10
C1C2CC3CC1CC(c1nn4c(C56CC7CC(CC(C7)C5)C6)nnc4s1)(C2)C3	> 100
Cn1c(-c2cccs2)cc(-c2cccs2)c1-c1cccs1	> 100
CCSc1nnc(Sc2c3ccccc3nc3ccccc23)s1	> 28
N=c1c2ccccc2nc2oc3cc([N+](=O)[O-])ccc3n12	> 100
CCOC(=O)CC[C@H](N)C(=O)N[C@@H](Cc1ccc(N(CCCl)CCCl)cc1)C(=O)OCC	28.4

Tested on: NCI-H23 lung
Test: growth of human tumour cells (NCI), 48 h

Structure (SMILES)	TGI [µM]
CCN(CCCl)c1cc(CN(C)C)cc(NC(=O)c2ccc(C(=O)Nc3cc(CN(C)C)cc(N(CC)CCCl)c3)cc2)c1	0.472
C=CCN1C(=O)/C(=C/c2ccc(Cl)cc2)N=C1SC/C=C/C	> 100
CC12Nc3c(Cl)cc(Cl)cc3N1C(=O)c1ccccc12 (centres undefined)	> 100
O=C1C2=Cc3ccccc3CCN2c2ccccc21	> 100
CC(=O)OCC1OC(NC(=S)Nn2c(=O)[nH]c3ccccc3c2=O)C(OC(C)=O)C(OC(C)=O)C1OC(C)=O (centres undefined)	> 100
CN(CCC(=O)N1CC(CCl)c2ccc([N+](=O)[O-])cc21)CCC(=O)N1CC(CCl)c2ccc([N+](=O)[O-])cc21 (centres undefined)	29.3
C[C@]12CC[C@H]3[C@@H](CCC4=CC(=O)CC[C@@H]43)[C@@H]1CC[C@]2(O)C(N)=O	> 100
C/C(Cl)=N/OC(=O)Nc1ccc(F)c([N+](=O)[O-])c1	48.5
O=c1[nH]c(=O)n(C/C=C/CO)nc1Br	> 100
O=C1CC(Br)c2c(Br)sc(Br)c21 (centres undefined)	32
CC[C@]12C=CCN3CC[C@@]4(c5cc(Br)c(OC)c([N+](=O)[O-])c5N(C)[C@H]4[C@@](O)(C(=O)OC)[C@@H]1OC(C)=O)[C@@H]32	> 100
COC(=O)C1C2OC(C)(C)OC2CN1S(=O)(=O)c1ccc(C)cc1 (centres undefined)	> 100
COc1ccc(CNc2ccn(C3OC(CO)C(O)C3O)c(=O)n2)cc1 (centres undefined)	> 100
O=C1CSC(c2ccccc2)N1c1nc2cc3sc(N4C(=O)CSC4c4ccccc4)nc3cc2s1 (centres undefined)	> 100
Cc1nc(N)c(N2CCN(S(N)(=O)=O)CC2)c(=O)[nH]1	> 100
CC(C)OC(=O)c1ccc(NCC2=CC(=O)C=CC2=O)cc1	29
CC(C)C[C@H]1[C@@H](OCc2ccccc2)COS(=O)(=O)N1[C@H](C)c1ccccc1	> 100
O=c1[nH]c2cccc([N+](=O)[O-])c2c(=O)n1-c1ccc(Cl)cc1	42.1
O=C1c2ccccc2-c2nnc(-c3ccc([N+](=O)[O-])cc3)cc21	> 10
C1C2CC3CC1CC(c1nn4c(C56CC7CC(CC(C7)C5)C6)nnc4s1)(C2)C3	> 100
Cn1c(-c2cccs2)cc(-c2cccs2)c1-c1cccs1	> 100
CCSc1nnc(Sc2c3ccccc3nc3ccccc23)s1	53.1
N=c1c2ccccc2nc2oc3cc([N+](=O)[O-])ccc3n12	49.5
CCOC(=O)CC[C@H](N)C(=O)N[C@@H](Cc1ccc(N(CCCl)CCCl)cc1)C(=O)OCC	1.35

Tested on: NCI-H460 lung
Test: growth of human tumour cells (NCI), 48 h

Structure (SMILES)	TGI [µM]
CCN(CCCl)c1cc(CN(C)C)cc(NC(=O)c2ccc(C(=O)Nc3cc(CN(C)C)cc(N(CC)CCCl)c3)cc2)c1	1.54
C=CCN1C(=O)/C(=C/c2ccc(Cl)cc2)N=C1SC/C=C/C	> 100
CC12Nc3c(Cl)cc(Cl)cc3N1C(=O)c1ccccc12 (centres undefined)	> 100
O=C1C2=Cc3ccccc3CCN2c2ccccc21	60.2
CC(=O)OCC1OC(NC(=S)Nn2c(=O)[nH]c3ccccc3c2=O)C(OC(C)=O)C(OC(C)=O)C1OC(C)=O (centres undefined)	> 100
CN(CCC(=O)N1CC(CCl)c2ccc([N+](=O)[O-])cc21)CCC(=O)N1CC(CCl)c2ccc([N+](=O)[O-])cc21 (centres undefined)	> 100
